Publication PMC3720659, “Integrated Analysis of Drug-Induced Gene Expression Profiles Predicts Novel hERG Inhibitors” (PLoS ONE, 2013)
Where two headings read alike, the source gives them in different places.

Assays:
[1] = cited from earlier work
[2] = target: T1, hERG channel (Homo sapiens, UniProt Q12809)
Source text: (§1) Inhibition of hERG current was experimentally assessed using a previously described protocol [19]. Briefly, Chinese hamster ovary (CHO) cells stably expressing the hERG channel were dislodged from tissue culture flasks and dispensed into PPC plates. Background leak currents were estimated by initiating a 100 ms step to -80 mV from an initial holding potential of -70 mV and subtracted from the subsequent current measurement. For each drug concentration, sequential voltage pulses were applied, each using a 100 ms step to -30 mV from a holding potential of -70 mV, a 2 s conditioning step to +45 mV, and a 2 s test step to -30 mV. Small molecule effects on hERG current density were quantified by measuring the peak tail current prior to compound application and dividing by the amplitude following application of each test concentration. […] Data were fit to a sigmoidal dose response curve using Origin 6.0 (Microcal).

[3] = test system: recombinantly expressed hERG channels; conditions: cited from earlier work
[4] = test system: hERG current; conditions: cited from earlier work
[5] = target: T1, hERG channel; test: cell-based
Source text: as §1

[6] = drug on LQT Drug List, the Cell Line (HL60, MCF7, PC3) is the cell line of the expression profile
[7] = on LQT Drug List, the Cell Line (HL60, MCF7, PC3) names the expression profile
[8] = hERG inhibition annotation of the drug, the Cell Line (HL60, MCF7, PC3) is the cell line of the expression profile, not of the hERG test
[9] = inhibitor means 50% or more decrease of hERG current at 10 µM, acute recording

T1 sequence (Q12809 whole entry): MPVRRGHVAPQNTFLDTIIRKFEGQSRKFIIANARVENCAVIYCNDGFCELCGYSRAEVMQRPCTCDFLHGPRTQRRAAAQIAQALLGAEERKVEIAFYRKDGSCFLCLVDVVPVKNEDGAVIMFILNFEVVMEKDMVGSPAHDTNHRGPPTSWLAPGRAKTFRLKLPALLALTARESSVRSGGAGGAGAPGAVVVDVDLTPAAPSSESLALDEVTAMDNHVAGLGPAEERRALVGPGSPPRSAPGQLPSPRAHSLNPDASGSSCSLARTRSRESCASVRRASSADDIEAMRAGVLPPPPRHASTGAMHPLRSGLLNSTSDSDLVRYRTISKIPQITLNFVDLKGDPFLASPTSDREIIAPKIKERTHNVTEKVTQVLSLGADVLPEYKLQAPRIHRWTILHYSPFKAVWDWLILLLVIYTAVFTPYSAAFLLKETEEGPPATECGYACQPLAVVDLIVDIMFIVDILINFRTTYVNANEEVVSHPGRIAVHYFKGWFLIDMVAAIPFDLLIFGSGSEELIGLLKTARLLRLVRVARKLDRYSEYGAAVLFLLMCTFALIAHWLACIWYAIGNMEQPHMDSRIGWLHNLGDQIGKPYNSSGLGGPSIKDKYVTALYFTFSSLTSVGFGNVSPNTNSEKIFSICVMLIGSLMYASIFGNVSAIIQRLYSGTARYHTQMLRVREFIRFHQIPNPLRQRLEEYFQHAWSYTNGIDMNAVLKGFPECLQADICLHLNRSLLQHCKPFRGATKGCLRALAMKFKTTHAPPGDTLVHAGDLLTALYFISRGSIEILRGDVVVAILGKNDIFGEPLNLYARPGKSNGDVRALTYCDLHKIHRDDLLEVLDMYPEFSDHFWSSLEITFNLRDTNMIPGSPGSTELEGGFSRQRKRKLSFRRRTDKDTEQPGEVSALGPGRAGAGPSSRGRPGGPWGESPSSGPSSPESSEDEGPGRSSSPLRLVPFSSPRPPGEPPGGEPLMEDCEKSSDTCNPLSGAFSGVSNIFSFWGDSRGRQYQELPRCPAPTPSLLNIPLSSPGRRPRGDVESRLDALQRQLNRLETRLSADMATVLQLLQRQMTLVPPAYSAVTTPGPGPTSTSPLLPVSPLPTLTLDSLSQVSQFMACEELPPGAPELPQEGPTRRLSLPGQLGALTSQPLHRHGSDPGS

CC1COc2c(N3CCN(C)CC3)c(F)cc3c(=O)c(C(=O)O)cn1c23 (centres unmarked) [ofloxacin]
Annotation (LQT Drug) [1, 6]: LQT Drug

CC(CCc1ccc(O)cc1)NCCc1ccc(O)c(O)c1 (centres unmarked) [dobutamine]
Annotation (LQT Drug) [1, 7]: LQT Drug

CCCCC(CC)CN1CN(CC(CC)CCCC)CC(C)(N)C1 (centres unmarked) [Hexetidine]
Behaviour during hERG electrophysiology recording [2]: appears to disrupt the membrane seal during recording

CNCCCC12CCC(c3ccccc31)c1ccccc12 [maprotiline]
Annotation (LQT Drug) [1, 6]: LQT Drug

Clc1ccc(COC(Cn2ccnc2)c2ccc(Cl)cc2Cl)c(Cl)c1 (centres unmarked) [Miconazole, reference compound]
Inhibition of hERG channels recombinantly expressed in cell lines [3]: inhibit | Annotation (hERG Active / Inactive) [4, 8]: Inactive | hERG inhibition call in the high-throughput electrophysiology assay [4, 9]: inactive

NC12CC3CC(CC(C3)C1)C2 [amantadine]
Annotation (LQT Drug) [1, 7]: LQT Drug

CCN(CC)CCCC(C)Nc1ccnc2cc(Cl)ccc12 (centres unmarked) [chloroquine]
Annotation (LQT Drug) [1, 7]: LQT Drug

Cc1cccc(C)c1OCC(C)N (centres unmarked) [mexiletine]
Annotation (LQT Drug) [1, 6]: LQT Drug

OC(c1cc(C(F)(F)F)nc2c(C(F)(F)F)cccc12)C1CCCCN1 (centres unmarked) [Mefloquine, reference compound]
Inhibition of hERG channels recombinantly expressed in cell lines [3]: inhibit | Annotation (hERG Active / Inactive) [4]: Inactive | hERG inhibition call in the high-throughput electrophysiology assay [4]: inactive

Clc1ccc2c(c1)C(N1CCNCC1)=Nc1ccccc1O2 [Amoxapine, reference compound]
Annotation (LQT Drug) [1, 7]: LQT Drug | hERG inhibition call in the high-throughput electrophysiology assay [4, 9]: negatives

CC(NCCC(c1ccccc1)c1ccccc1)c1ccccc1 (centres unmarked) [Fendiline, reference compound]
Association with drug-induced LQT ([1]; previous literature, not in the LQT drug lists used): drug-induced LQT | IC50 [5]: 2600 ± 100 nM

OCCN1CCN(CCCN2c3ccccc3Sc3ccc(C(F)(F)F)cc32)CC1 [fluphenazine]
Annotation (LQT Drug) [1, 6]: LQT Drug

COc1cc2nc(N(C)CCCNC(=O)C3CCCO3)nc(N)c2cc1OC (centres unmarked) [alfuzosin]
Annotation (LQT Drug) [1, 7]: LQT Drug

CN(C)CCC=C1c2ccccc2CCc2ccccc21 [amitriptyline]
Annotation (LQT Drug) [1, 7]: LQT Drug

CC(Cc1ccccc1)NCCC(c1ccccc1)c1ccccc1 (centres unmarked) [prenylamine]
Annotation (LQT Drug) [1, 6]: LQT Drug

CNCCCN1c2ccccc2CCc2ccccc21 [desipramine]
Annotation (LQT Drug) [1, 7]: LQT Drug

CC(=O)N1CCN(c2ccc(OCC3COC(Cn4ccnc4)(c4ccc(Cl)cc4Cl)O3)cc2)CC1 (centres unmarked) [ketoconazole]
Annotation (LQT Drug) [1, 6]: LQT Drug

CCN(CC)CCOc1ccc(C(=C(Cl)c2ccccc2)c2ccccc2)cc1 [Clomiphene]
IC50 ([3]; read-out: IC50 for inhibition of the current of recombinantly expressed hERG channels): 180 nM

CNCCC=C1c2ccccc2CCc2ccccc21 [nortriptyline]
Annotation (LQT Drug) [1, 6]: LQT Drug

Clc1ccc(C(OCCN2CCCCC2)c2ccccc2)cc1 (centres unmarked) [Cloperastine]
IC50 [5]: 360 ± 50 nM

CC1Cc2ccccc2N1NC(=O)c1ccc(Cl)c(S(N)(=O)=O)c1 (centres unmarked) [indapamide]
Annotation (LQT Drug) [1, 6]: LQT Drug

[H]/N=C(/N)NS(=O)(=O)c1ccc(N)cc1 [sulfaguanidine]
Annotation (hERG inhibition class, Active/Inactive by IC50) ([4]; annotation of the drug, Cell Line (HL60, MCF7, PC3) is the cell line of the drug-induced expression profile, not of the hERG assay, ref hERGcentral): Inactive

O=C1NCC2(CCN(CCc3ccccc3)CC2)O1 [fenspiride]
Annotation (hERG Active / Inactive) ([4]; hERG annotation of the drug, the Cell Line (HL60, MCF7, PC3) names the expression profile, not the hERG test): Inactive

NCC1(CC(=O)O)CCCCC1 [gabapentin]
Annotation (hERG Active / Inactive) [4, 8]: Inactive

CN1CCCC(CC2c3ccccc3Sc3ccccc32)C1 (centres unmarked) [metixene]
Annotation (hERG Active / Inactive) [4, 8]: Active

N=C(N)N/N=C/c1c(Cl)cccc1Cl [guanabenz]
Annotation (hERG Active / Inactive) [4, 8]: Inactive

COc1c2c(cc3c1OCO3)CCN(C)C2 [hydrocotarnine]
Annotation (hERG Active / Inactive) [4, 8]: Inactive

COC1=C2C[C@@H](C)C[C@H](OC)[C@H](O)[C@@H](C)/C=C(\C)[C@H](OC(N)=O)[C@@H](OC)/C=C\C=C(/C)C(=O)NC(=CC1=O)C2=O [geldanamycin]
Annotation (LQT Drug) [1, 6]: LQT Drug

O=C1CC[C@@]2(O)[C@H]3Cc4ccc(O)c5c4[C@@]2(CCN3CC2CC2)[C@H]1O5 [naltrexone]
Annotation (hERG Active / Inactive) [4, 8]: Inactive
